Source: US20130261077A1 (priority 2012, published 2013)

Key:
FimH-CRD [1] = target: T1, FimH-CRD (Escherichia coli, UniProt P08191); experiment: Competitive binding assay by fluorescence polarization, assay 1 (compounds prepared by manual serial dilution)
T1 construct: The first 177 amino acids of the FimH protein; thrombin tag (printed as 'fusion protein with thrombin') (cleaved yes); made in house; host or cells: bacteria (pET21b plasmid)
In short: (§1)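 Compounds at 0.4 nM–75 μM final (12 points, 3-fold steps, duplicate) compete with a 5 nM Alexa 647 mannoside probe for 60 nM FimH-CRD; 5 h room-temperature incubation in pH 7.0 Tris buffer with 2.5% DMSO, FP read-out, Kd from fitted curves. Assay 1 uses manual dilution, assay 2 robot-made frozen/thawed plates.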

FimH-CRD [2] = target: T1, FimH-CRD; experiment: Competitive binding assay by fluorescence polarization, assay 2 (compounds prepared by robotics, plates frozen and thawed)
In short: as §1

T1 sequence (P08191 22-177): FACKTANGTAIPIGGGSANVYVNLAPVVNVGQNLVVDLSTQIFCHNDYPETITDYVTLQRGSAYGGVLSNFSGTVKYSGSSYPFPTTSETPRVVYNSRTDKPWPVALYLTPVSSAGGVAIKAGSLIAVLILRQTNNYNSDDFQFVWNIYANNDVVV

SMILES	Kd (FimH-CRD [1]) [nM]	Kd (FimH-CRD [2]) [nM]	IC50 (FimH-CRD [1]) [nM]
Cc1nnc(-c2cccc(-c3ccc([C@H]4O[C@H](CO)[C@@H](O)[C@H](O)[C@@H]4O)cc3)c2)o1 [Compound 130, (2R,3S,4R,5S,6R)-2-(hydroxymethyl)-6-[4-[3-(5-methyl-1,3,4-oxadiazol-2-yl)phenyl]phenyl]tetrahydropyran-3,4,5-triol]	< 5	46.2	
CC(C)C(=O)Nc1ccc(Oc2cccc([C@H]3O[C@H](CO)[C@@H](O)[C@H](O[C@H]4O[C@H](CO)[C@@H](O)[C@H](O)[C@@H]4O)[C@@H]3O)c2)cc1 [Compound 273, N-[4-[3-[(2R,3R,4R,5R,6R)-3,5-Dihydroxy-6-(hydroxymethyl)-4-[(2R,3S,4S,5S,6R)-3,4,5-trihydroxy-6-(hydroxymethyl)tetrahydropyran-2-yl]oxy-tetrahydropyran-2-yl]phenoxy]phenyl]-2-methyl-propanamide]	12.1 ± 5.7	21.8 ± 5.2	38
COC(=O)COc1cccc([C@H]2O[C@H](CO)[C@@H](O)[C@H](O[C@H]3O[C@H](CO)[C@@H](O)[C@H](O)[C@@H]3O)[C@@H]2O)c1 [Compound 286, Methyl 2-[3-[(2R,3R,4R,5R,6R)-3,5-dihydroxy-6-(hydroxymethyl)-4-[(2R,3S,4S,5S,6R)-3,4,5-trihydroxy-6-(hydroxymethyl)tetrahydropyran-2-yl]oxy-tetrahydropyran-2-yl]phenoxy]acetate]	17.4 ± 4.8	35.1 ± 16.7	63
OC[C@H]1O[C@H](c2cccc(Br)c2)[C@@H](O)[C@@H](O)[C@@H]1O [Intermediate C, (2R,3S,4R,5S,6R)-2-(3-bromophenyl)-6-(hydroxymethyl)tetrahydro-2H-pyran-3,4,5-triol]	24 ± 5	27	
